According to US10220005B2 (GW Research Limited, priority 2012, dated 2019):

What was measured:
interleukin 1 = assay: Piglet model of HI, interleukin 1 in brain tissue by microarrays; format: in vivo; settings: piglets
Description: (§1) A piglet model of HI was used as described in (Alvarez et al. 2008). Briefly, an HI insult is induced in anesthetized 1-3 day-old piglets by occluding both carotid arteries and decreasing inspired oxygen from 21 to 10% for 30 min.
(§2) Thirty minutes after the recovery of HI the test compound was administered via the i.v. route.
(§3) At the end of the experiment, piglets are euthanized and the brain removed; one hemisphere was immediately frozen and stored at −80 ° C. whereas the other one was preserved in 4% paraformaldehide. A sample of frozen brain was obtained to perform a proton magnetic resonance spectroscopy (H+-MRS). Similarly managed piglets but without HI served as controls.

piglet model of HI = assay: Piglet model of HI, Nissl staining of brain slices (Example 1); format: in vivo; settings: piglets; for effect of co-administered antagonist on the CBD-induced reduction of neuronal death: given with CBD 1 mg/kg i.v., AM630 1 mg/kg, WAY100635 0.1 mg/kg, caffeine 10 mg/kg
Description: as §1, §2, §3

rat model of HI [1] = assay: Rat model of HI, neurobehavioral tests (rotarod, cylinder, novel object); format: in vivo, Wistar rats; settings: rats, CBD 1 mg/kg s.c. single dose, tests at day 35
Description: (§4) A rat model of HI was used as described by (Fernandez-Lopez et al., 2007). Briefly, an HI insult is induced in 7-10 day-old Wistar rats by electro-coagulating the left carotid artery under anaesthesia following by the exposure to 10% oxygen for 120 min.
Sham operated pups without hypoxia served as controls, and were treated with vehicle or CBD as indicated. The pups were then returned to their dams.
At day 35 rats underwent neurobehavioral tests: rotarod (to test coordination), cylinder (to test unilateral deficits) and novel object preference (to test memory impairments).

rat model of HI [2] = assay: Rat model of HI, magnetic resonance imaging of brain lesion; format: in vivo, Wistar rats; settings: rats, CBD 1 mg/kg s.c. single dose, one month later (P37)
Description: as §4
The pups were then returned to their dams.
Rats were then euthanized and the brain removed and stored in 4% paraforlmadehide. Magnetic resonance imaging was performed on the brains to evaluate the damaged area. In some rats, MRI was performed 7 days after HI.

COc1ccc(C(=O)c2c(C)n(CCN3CCOCC3)c3cc(I)ccc23)cc1 [AM]
effect of co-administered antagonist on the CBD reduction of IL-1 production (interleukin 1; given with CBD 1 mg/kg i.v., AM630 1 mg/kg, WAY100635 0.1 mg/kg, caffeine 10 mg/kg): blunted | effect of co-administered antagonist on the CBD-induced reduction of neuronal death (piglet model of HI): blunted

C=C(C)[C@@H]1CCC(C)=C[C@H]1c1c(O)cc(CCCCC)cc1O [CBD, cannabidiol]
production of IL-1 (concentration of interleukin 1 in brain tissue) (interleukin 1; CBD 1 mg/kg i.v., 6 h after HI, microarrays): reduces | coordination (RotaRod) (rat model of HI [1]): normalization | memory (novel object recognition) (rat model of HI [1]): normalization | motor performance (cylinder rear test) (rat model of HI [1]): normalization | percentage of necrotic tissue in both the cortex and the hippocampus (piglet model of HI; CBD 1 mg/kg i.v. 30 min after HI, brain tissue 6 h after HI): reduces | volume of lesion (MRI; printed as brain volume) (rat model of HI [2]): significantly reduced

COc1ccccc1N1CCN(CCN(C(=O)C2CCCCC2)c2ccccn2)CC1 [WAY]
effect of co-administered antagonist on the CBD-induced reduction of neuronal death (piglet model of HI): blunted

Cn1c(=O)c2c(ncn2C)n(C)c1=O [caffeine, Caffeine]
effect of co-administered antagonist on the CBD-induced reduction of neuronal death (piglet model of HI): not by caffeine
